The results in this text go back to patent US11116778B2, “Prodrugs of ALOX-15 inhibitors and methods of using the same” (EMPIRICO INC., priority 2019, dated 2021).

In this assay the test system is ALOX15 mRNA. The assay can be described thus: ALOX15 mRNA by RT-qPCR in human nasal epithelial primary cells. It is filed as cell-based. Conditions: 5 μM or 1 μM, 3 x 24 hours with 20 ng/mL IL-13. On the procedure: Human nasal epithelial primary cells (HNEpC) (PromoCell GmbH, Heidelberg, Germany) were cultured according to the manufacturer in provided Primary Cell media in 24 well plates at a density of 25,000 cells per well. Cells were treated with 5 μM or 1 μM of compound 5 or vehicle only (water) in media containing 20 ng/mL IL-13 for 24 hours in a 37° C. cell culture incubator. The following day, media was replaced and fresh media containing 20 ng/mL IL-13 and compound 5 or vehicle was added to each well, then incubated again for 24 hours in a 37° C. cell culture incubator. The process was repeated once more for a 24-hour period.
ALOX15 and POSTN mRNA levels were measured by RT-qPCR. […] The level of ALOX15 mRNA from each sample was measured in triplicate by real-time qPCR on an Applied Biosystems 7500 Fast Real-Time PCR machine using the TaqMan Gene Expression Assay for human ALOX15 (ThermoFisher, assay #Hs00993765_g1). The level of PPIA mRNA was measured in biplex reactions using TaqMan Gene Expression Assay (ThermoFisher, assay #Hs99999904_ml) and used to determine relative ALOX15 mRNA levels in each well using the delta-delta Ct method. […] Relative POSTN mRNA levels were measured as above using TaqMan Gene Expression Assay specific for human POSTN mRNA (ThermoFisher, assay #Hs00170815_m1). […]
For orientation: In qPCR the cycle at which signal appears reflects the starting amount.

Consider `O=C(Nc1ccc(F)cc1Cl)c1nn(COP(=O)(O)O)c(Cl)c1Cl` [compound 5, (4,5-dichloro-3-((2-chloro-4-fluorophenyl)carbamoyl)-1H-pyrazol-1-yl)methyl dihydrogen phosphate], for which the “relative level of ALOX15 mRNA versus vehicle (FIG. 7)” value is recorded as “lower”.
